Source: ChEMBL document CHEMBL1154437, “Pyrimido[1,2-a]quinoxaline 6-oxide and phenazine 5,10-dioxide derivatives and related compounds as growth inhibitors of Trypanosoma cruzi” (Eur J Med Chem, 2008)

These molecules were tested on Trypanosoma cruzi (assay: Antitrypanosomal activity against Trypanosoma cruzi Y epimastigotes at 25 uM). Settings: read-out: GI.
Type: functional

SMILES	inhibition of growth at 25 µM [%]
[O-][n+]1c2ccccc2[n+]([O-])c2cc(O)ccc21	0

These molecules were tested on Trypanosoma cruzi (assay: Antitrypanosomal activity against Trypanosoma cruzi Tulahuen 2 epimastigotes at 25 uM). Settings: read-out: GI.
Type: functional

SMILES	inhibition of growth at 25 µM [%]
[O-][n+]1c2ccccc2[n+]([O-])c2cc(O)ccc21	0
O=[N+]([O-])c1ccc(C2=[N+]([O-])c3ccccc3N3CCCN=C23)cc1	9
O=[N+]([O-])c1ccccc1C1=[N+]([O-])c2ccccc2N2CCCN=C12	12
COc1ccc(C2=[N+]([O-])c3ccccc3N3CCC[N+](C)=C23)cc1	9
C[N+]1=C2C(c3ccc([N+](=O)[O-])cc3)=[N+]([O-])c3ccccc3N2CCC1	20
c1ccc(C2=Nc3ccccc3N3CCCN=C23)cc1	29
C[N+]1=C2C(c3ccccc3)=[N+]([O-])c3ccccc3N2CCC1	20
[O-][N+]1=C(c2ccccc2)C2=NCCCN2c2ccccc21	36
COc1ccc(C2=[N+]([O-])c3ccccc3N3CCCN=C23)cc1	36
[O-][N+]1=C(c2ccc(Cl)cc2)C2=NCCCN2c2ccccc21	14
[O-][N+]1=C(Cc2ccccc2)C2=NCCCN2c2ccccc21	13
CC1=[N+]([O-])c2ccccc2N2CCCN=C12	22
COc1ccc(C2=[N+]([O-])c3ccccc3N3CC(C)(C)CN=C23)cc1	13
[O-][N+]1=C(c2ccccc2Cl)C2=NCCCN2c2ccccc21	14

The molecules below were run on Trypanosoma cruzi (assay: Antitrypanosomal activity against Trypanosoma cruzi CL Brener epimastigotes at 25 uM). Settings: read-out: GI.
Type: functional

SMILES	inhibition of growth at 25 µM [%]
[O-][n+]1c2ccccc2[n+]([O-])c2cc(O)ccc21	14
